According to ChEMBL document CHEMBL3301464, “MMV Malaria Box anti-babesial screening”:

What was measured:
[1] = (§1) MMV: Anti-babesial activity assay. Parasite pRBCs at 1% parasitemia were cultivated in 100 ul with 96-well plates at 2.5% and 5% hematocrits. The parasites were cultivated in triplicate for 4 days without replacement of the medium for each concentration of the compound.; type: functional, Babesia bovis
[2] = as §1; type: functional, Babesia bigemina
[3] = as §1; type: functional, Babesia equi
[4] = as §1; type: functional, Babesia caballi

| SMILES | IC50 [1] [µM] | IC50 [2] [µM] | IC50 [3] [µM] | IC50 [4] [µM] |
| --- | --- | --- | --- | --- |
| COc1ccccc1CNC(=O)C1c2ccccc2C(=O)N(CC(C)C)C1c1cccs1 (stereo unspecified) | 8.25 | 10 | 10 | 16.8 |
| CC(=O)c1sc(NC(=O)Nc2ccc(C)cc2C)nc1C | 11.1 | 10 | 7.26 | 5.3 |
| CCOc1cc(Cl)c(C(C)NC(=O)c2cccc(OC)c2)cc1OCC (stereo unspecified) | 25 | 7.3 | 2.45 | 18.7 |
| CCCCCCC(O)(c1ccc(F)cc1)C(CN1CCOCC1)c1ccccc1 (stereo unspecified) | 2.63 | 9.87 | 10 | 0.29 |
| CCC(O)c1ccc(Br)cc1NC(=O)c1cccc(Cl)c1 (stereo unspecified) | > 25 | 7.38 | > 25 | 11.4 |
| CCN(CC)CCn1c(=N)n(CC(O)c2ccc(Cl)c(Cl)c2)c2ccccc21 (stereo unspecified) | 10.1 | 17.2 | 3.91 | 5.62 |
| CCOc1ccc(/C=C/c2nc(=O)c3ccccc3o2)cc1 | 1 | 3.03 | 12.5 | 19.4 |
| COc1ccc(NC(=O)C2c3ccccc3C(=O)N(CC(C)C)C2c2cccs2)cc1Cl (stereo unspecified) | 3.15 | 2.52 | 6.87 | 4.69 |
| CCc1ccc(CNCC(O)c2ccccc2)cc1 (stereo unspecified) | 11.1 | 7.65 | 15.2 | 4.13 |
| COCCN(C(=O)Cc1cccs1)C(C(=O)NCc1ccc(OC)cc1)c1ccc(C(C)C)cc1 (stereo unspecified) | 25 | 13.2 | 5.79 | 17.2 |
| CCC1(C)CC(CCNCc2ccccc2O)(c2ccc(C)cc2)CCO1 (stereo unspecified) | 14.1 | 16.8 | 0.61 | 7.3 |
| COc1cc2cc(C(=O)Nc3ccccc3)c(N)nc2cc1OC | 0.86 | 21.1 | 3.04 | 6.22 |
| CCC(=O)Nc1nnc(Cc2ccc(OC)c(OC)c2)s1 | 1.29 | 10 | 12.4 | 4.65 |
| Oc1ccc(Cl)cc1CNc1nc2ccccc2[nH]1 | 5.38 | 5.06 | 4.77 | 8.03 |
| CCOc1cc(Br)c(C(C)NC(=O)c2cccc(OC)c2)cc1OCC (stereo unspecified) | 10 | 25 | 12.4 | 13.3 |
| Cc1cc(N2CCCC2)nc(Nc2ccc(NC(=O)CCc3ccccc3)cc2)n1 | 15.5 | 13.4 | 3.02 | 3.53 |
| CCc1ccc(Nc2cc(C)nc3nc(C)nn23)cc1 | 13.5 | 10 | 10 | 0.074 |
| CC(C)(C)CC(C)(C)NCC(O)COc1ccc2c(c1)CCC2 (stereo unspecified) | 10 | 0.6 | 2.45 | 6.81 |
| Cc1ccc(Nc2nc(NCCO)c3ccccc3n2)cc1C | 3.63 | 6.36 | 2.2 | 5 |
| COc1ccc(-c2cc3c(SCC(=O)Nc4cc(C(F)(F)F)ccc4Cl)nccn3n2)cc1 | > 25 | 17.1 | 25 | 9.61 |
| O=C(Nc1ccc(F)c(Cl)c1)Nc1ccc(Cl)c(Cl)c1 | 3.53 | 3.39 | 3.39 | 3.81 |
| Cc1ccc(-c2cc3nc4c(c(O)n3n2)CCCC4)cc1 | 7.31 | 15 | 7.05 | 15.8 |
| COc1cccc(Nc2nc(NCCO)c3ccccc3n2)c1 | 6.99 | 1 | 4.09 | 1.3 |
| COc1ccc(C(=O)NC(c2ccccc2Cl)c2cc(Cl)c3cccnc3c2O)cc1 (stereo unspecified) | 0.19 | 15.9 | 0.42 | 17.5 |
